Measurements from patent US9796726B2, “Dihydroquinoline pyrazolyl compounds” (Hoffmann-La Roche Inc., priority 2014, dated 2017).

Key:
human CYP11B1 = target: T1, human CYP11B1 (Homo sapiens, UniProt P15538); experiment: G-402 cellular enzyme assay, human CYP11B1 (cortisol release, HTRF); format: cell-based; settings: stable G-402 cells expressing human CYP11B1; 1 μM Deoxycortisol; 16 h
T1 construct: The expression plasmids contains the ORF for either human/cyno CYP11B1 or CYP11B2; expressed in transfected cells
T1 sequence (P15538 25-503): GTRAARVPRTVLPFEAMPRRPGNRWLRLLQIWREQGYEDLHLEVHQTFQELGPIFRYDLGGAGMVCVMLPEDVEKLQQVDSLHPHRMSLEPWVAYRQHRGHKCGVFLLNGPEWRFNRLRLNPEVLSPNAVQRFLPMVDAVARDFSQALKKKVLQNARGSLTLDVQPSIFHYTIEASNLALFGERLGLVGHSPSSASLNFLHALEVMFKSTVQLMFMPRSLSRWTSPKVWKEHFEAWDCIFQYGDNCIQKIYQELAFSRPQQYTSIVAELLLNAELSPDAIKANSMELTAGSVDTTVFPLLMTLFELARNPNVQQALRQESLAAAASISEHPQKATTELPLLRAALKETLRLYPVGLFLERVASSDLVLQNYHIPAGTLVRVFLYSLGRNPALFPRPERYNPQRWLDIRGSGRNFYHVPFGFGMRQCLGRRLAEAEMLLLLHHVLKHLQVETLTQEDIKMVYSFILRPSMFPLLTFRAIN
From the text: Herein we identified the use of the G-402 cell line as a host cell to ectopically express (transiently or stably) enzymes of the CYP11 family. Specifically we developed stable G-402 cells expressing ectopically human CYP11B1, human CYP11B2, human CYP11A1, cynmolgus CYP11B1 or cynomolgus CYP11B2 enzyme activity. Importantly the identified cell line G-402 expresses co-factors (adrenodoxin and adrenodoxin reductase) important for the activity of the CYP11 family and no relevant enzyme activity of the CYP11 family (in comparison to H295R cells) was detected in these cells. Therefore the G-402 cell line is uniquely suited as a host cell for the ectopic expression of enzymes from the CYP11 family.
G-402 cells can be obtained from ATCC (CRL-1440) and were originally derived from a renal leiomyoblastoma.
The expression plasmids contains the ORF for either human/cyno CYP11B1 or CYP11B2 under the control of a suitable promoter (CMV-promoter) and a suitable resistance marker (neomycin). Using standard techniques the expression plasmid is transfected into G-402 cells and these cells are then selected for expressing the given resistance markers. Individual cell-clones are then selected and assessed for displaying the desired enzymatic activity using 11-Deoxycorticosterone (Cyp11B2) or 11-Deoxycortisol (Cyp11B1) as a substrate.
G-402 cells expressing CYP11 constructs were established as described above and maintained in McCoy's 5a Medium Modified, ATCC Catalog No. 30-2007 containing 10% FCS and 400 μg/ml G418 (Geneticin) at 37° C. under an atmosphere of 5% CO2/95% air. Cellular enzyme assays were performed in DMEM/F12 medium containing 2.5% charcoal treated FCS and appropriate concentration of substrate (0.3-10 uM 11-Deoxycorticosterone, 11-Deoxycortisol or Corticosterone). For assaying enzymatic activity, cells were plated onto 96 well plates and incubated for 16 h. An aliquot of the supernatant is then transferred and analyzed for the concentration of the expected product (Aldosterone for CYP11B2; Cortisol for CYP11B1). The concentrations of these steroids can be determined using HTRF assays from CisBio analyzing either Aldosterone or Cortisol.
Inhibition of the release of produced steroids can be used as a measure of the respective enzyme inhibition by test compounds added during the cellular enzyme assay. The dose dependent inhibition of enzymatic activity by a compound is calculated by means of plotting added inhibitor concentrations (x-axes) vs. measured steroid/product level (y-axes). The inhibition is then calculated by fitting the following 4-parameter sigmoidal function (Morgan-Mercer-Flodin (MMF) model) to the raw data points using the least squares method:
[formula] wherein, A is the maximum y value, B is the EC50 factor determined using XLFit, C is the minimum y value and D is the slope value.
EC50 values for compounds claimed herein were tested with the G402-based assay system described. Cyp11B2 enzyme activity was tested in presence of 1 μM Deoxycorticosterone and variable amounts of inhibitors; Cyp11B1 enzyme activity was tested in presence of 1 μM Deoxycortisol and variable amounts of inhibitors.

[1] = rat, cited from earlier work; for plasma aldosterone: FAD286 following 4 weeks of treatment, spironolactone at 4 and 8 weeks
CYP11B2 = CYP11B2 (Homo sapiens, UniProt P19099); settings: patients with primary aldosteronism, cited from earlier work
Sequence of CYP11B2 (P19099 25-503): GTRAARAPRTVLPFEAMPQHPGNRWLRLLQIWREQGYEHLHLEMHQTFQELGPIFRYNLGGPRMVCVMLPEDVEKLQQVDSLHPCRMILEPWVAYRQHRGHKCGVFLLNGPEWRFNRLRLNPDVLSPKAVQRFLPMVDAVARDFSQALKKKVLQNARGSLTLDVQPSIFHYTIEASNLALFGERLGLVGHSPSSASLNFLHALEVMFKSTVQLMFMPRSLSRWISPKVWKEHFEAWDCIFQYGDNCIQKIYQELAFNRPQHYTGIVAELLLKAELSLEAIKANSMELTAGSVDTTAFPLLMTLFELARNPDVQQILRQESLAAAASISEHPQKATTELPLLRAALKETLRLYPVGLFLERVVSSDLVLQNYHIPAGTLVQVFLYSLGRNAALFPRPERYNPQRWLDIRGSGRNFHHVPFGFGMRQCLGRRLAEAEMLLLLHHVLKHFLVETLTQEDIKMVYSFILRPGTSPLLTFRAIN

| SMILES | EC50 (human CYP11B1) [µM] | also measured |
| --- | --- | --- |
| CN1C(=O)CCc2cc(-c3[nH]ncc3CN3CC4(C3)CN(C(=O)c3ncccc3Cl)C4)ccc21 [Example 64, 6-[4-[[2-(3-Chloropyridine-2-carbonyl)-2,6-diazaspiro[3.3]heptan-6-yl]methyl]-1H-pyrazol-3-yl]-1-methyl-3,4-dihydroquinolin-2-one] | > 0.03 |  |
| N#Cc1ccc(C2CCCc3cncn32)cc1 (centres unmarked) [FAD286] |  | plasma aldosterone [1]: reduced |
| N#Cc1ccc([C@H]2CCc3cncn32)c(F)c1 [LCI699] |  | blood pressure (CYP11B2): mildly decreased; hypokalemia (CYP11B2): corrected; selectivity (effects on the glucocorticoid axis) (CYP11B2): poor selectivity; circulating aldosterone levels (CYP11B2; oral): significantly lower |
| CN1C(=O)CCc2cc(-c3n[nH]cc3CN3CCN(C(=O)c4cnn(C)c4)CC3)cc(Cl)c21 [Example 44, 8-Chloro-1-methyl-6-[4-[[4-(1-methylpyrazole-4-carbonyl)piperazin-1-yl]methyl]-1H-pyrazol-3-yl]-3,4-dihydroquinolin-2-one] | > 0.03 |  |
| CN1C(=O)CCc2c1ccc(-c1n[nH]cc1CN1CC3(C1)CN(C(=O)c1cnn(C)c1)C3)c2Cl [Example 53, 5-Chloro-1-methyl-6-[4-[[2-(1-methylpyrazole-4-carbonyl)-2,6-diazaspiro[3.3]heptan-6-yl]methyl]-1H-pyrazol-3-yl]-3,4-dihydroquinolin-2-one] | > 0.03 |  |
| CC(=O)S[C@@H]1CC2=CC(=O)CC[C@]2(C)[C@H]2CC[C@@]3(C)[C@@H](CC[C@@]34CCC(=O)O4)[C@H]12 [spironolactone] |  | plasma aldosterone [1]: increased; angiotensin II and salt-stimulated PAI-1 mRNA expression in the aorta and the heart [1]: enhanced |

More lines, main results first:

| EC50 (human CYP11B1) [µM] | SMILES | also measured |
| --- | --- | --- |
| > 0.03 | CCS(=O)(=O)N1CC2(CN(Cc3c[nH]nc3-c3ccc4c(c3Cl)CCC(=O)N4C)C2)C1 [Example 54, 5-Chloro-6-[4-[(2-ethylsulfonyl-2,6-diazaspiro[3.3]heptan-6-yl)methyl]-1H-pyrazol-3-yl]-1-methyl-3,4-dihydroquinolin-2-one] |  |
| > 0.03 | CC(=O)N1CCN(Cc2c[nH]nc2-c2ccc3c(c2)CCC(=O)N3C)C[C@H]1C [Example 49, (−)-6-[4-[[(3R)-4-Acetyl-3-methyl-piperazin-1-yl]methyl]-1H-pyrazol-3-yl]-1-methyl-3,4-dihydroquinolin-2-one] |  |
| > 0.03 | CCS(=O)(=O)N1CC2(CN(Cc3cn[nH]c3-c3cc(Cl)c4c(c3)CCC(=O)N4C)C2)C1 [Example 62, 8-Chloro-6-[4-[(2-ethylsulfonyl-2,6-diazaspiro[3.3]heptan-6-yl)methyl]-1H-pyrazol-3-yl]-1-methyl-3,4-dihydroquinolin-2-one] |  |
| > 0.03 | CN1C(=O)CCc2cc(-c3[nH]ncc3CN3CC4(C3)CN(C(=O)c3cnn(C)c3)C4)cc(Cl)c21 [Example 60, 8-Chloro-1-methyl-6-[4-[[2-(1-methylpyrazole-4-carbonyl)-2,6-diazaspiro[3.3]heptan-6-yl]methyl]-1H-pyrazol-3-yl]-3,4-dihydroquinolin-2-one] |  |
| > 0.03 | CC(=O)N1CC2(CN(Cc3cn[nH]c3-c3ccc4c(c3Cl)CCC(=O)N4C)C2)C1 [Example 59, 6-[4-[(2-Acetyl-2,6-diazaspiro[3.3]heptan-6-yl)methyl]-1H-pyrazol-3-yl]-5-chloro-1-methyl-3,4-dihydroquinolin-2-one] |  |
| > 0.03 | CCS(=O)(=O)N1CC2(CN(Cc3cn[nH]c3-c3ccc4c(c3)CCC(=O)N4C)C2)C1 [Example 56, 6-[4-[(2-Ethylsulfonyl-2,6-diazaspiro[3.3]heptan-6-yl)methyl]-1H-pyrazol-3-yl]-1-methyl-3,4-dihydroquinolin-2-one] |  |
| > 0.03 | CN1C(=O)CCc2cc(-c3[nH]ncc3CN3CC4(C3)CN(C(=O)c3nccn3C)C4)ccc21 [Example 63, 1-Methyl-6-[4-[[2-(1-methylimidazole-2-carbonyl)-2,6-diazaspiro[3.3]heptan-6-yl]methyl]-1H-pyrazol-3-yl]-3,4-dihydroquinolin-2-one] |  |
